What was measured:
Type in all cases: in vivo
Rhizoctonia = assay: Efficacy on corn seed in Ohio, soil inoculated with Rhizoctonia
Procedure: Corn seeds were treated with 1 fluid ounce per one hundred weight (fl oz/cwt) of the Formulations of Examples 1 and 4 prior to being planted in Ohio. Untreated seeds were planted to assess the disease impact in stand establishment. Besides the control, commercially available and known fungicides were applied to determine the effectiveness of formulations of the present invention.
At planting, the soil was inoculated with a fungus of the genus Rhizoctonia, a common corn plant pathogen that causes rot disease, to assess field performance and seedling protection of the above formulas.
“Plants per acre” was determined to establish stand density. Stand Density of Ohio Corn Plants after Seed Treatment.”

Fusarium = assay: Efficacy on corn seed in Illinois, soil inoculated with Fusarium; details: for Plants per acre 14DAP / Plants per acre 28DAP: Fusarium-inoculated soil; for Plants per acre 14DAP: 14 days after planting; for Plants per acre 28DAP: 28 days after planting; for % disease: number of plants with Fusarium infection
Procedure: Corn seeds were treated with 1 fluid ounce per one hundred weight (fl oz/cwt) or 65 mls/100 kg seed of the Formulations of Examples 1 and 4 prior to being planted in Illinois. Untreated seeds (“UTC”) were planted to assess the disease impact in stand establishment. Besides the control, commercially available and known fungicides were applied to determine the effectiveness of formulations of the present invention. Maxim® XL (Maxim is a registered trademark of Syngenta) is a fungicide containing 21% fludioxonil and 8.4% mefenoxam in a proprietary formulation. Apron XL® (Apron XL is a registered trademark of Syngenta) is fungicide containing 33.3% of mefenoxam in a proprietary formulation. Metalaxyl was applied in a 30.1% formulation and metconazole was applied in an approximately 40% dispersion with approximately 4% glycerine and other inert ingredients.
At planting, the soil was inoculated with a fungus of the genus Fusarium, a common corn plant pathogen that causes stalk rot disease, to assess field performance and seedling protection of the above formulas.
“Plants per acre” was determined to establish stand density. “% disease” was calculated by observing number of plants with Fusarium infection. The “height (cm) on roots” was determined. Stand Density and % Disease of Illinois Corn Plants after Seed Treatment.”

Corn seeds = assay: Efficacy on corn seeds in Mississippi (emergence and yield)

SMILES	Plants per acre 14DAP (Rhizoctonia)	Plants per acre 28DAP (Rhizoctonia)	Height (cm) on roots (Fusarium)	Plants per acre 14DAP (Fusarium)	Plants per acre 28DAP (Fusarium)	% disease (Fusarium)	Yield (bu/A) (Corn seeds)	Yield (kg/hectare) (Corn seeds)	% Emergence 20DAP (Corn seeds)	% Emergence 35DAP (Corn seeds)
COCC(=O)N(c1c(C)cccc1C)C(C)C(=O)OC (centres unmarked) [Metalaxyl, metalaxyl]	22400 plants per acre	28700 plants per acre	61.0 cm	25352 plants per acre	26049 plants per acre	18.0%	154 bu/A	9662.3 kg/hectare	91.5%	83.3%
CC1(C)CCC(Cc2ccc(Cl)cc2)C1(O)Cn1cncn1 (centres unmarked) [Metconazole, metconazole]	28875 plants per acre	28700 plants per acre	57.3 cm	28401 plants per acre	29011 plants per acre	37.6%	155.5 bu/A	9756.4 kg/hectare	80.8%	84.8%
